Like-named read-outs stand apart in the source and are kept apart here.
Experiments:
Echinochloa crus-galli = test: greenhouse post-emergence herbicidal activity on Echinochloa crus-galli; format: in vivo; conditions: for inhibition at 327 g/ha: read-out: Solo Glufosinate % activity; for inhibition at 10.2 g/ha: 10.2 g ai/ha, scale 0-100% damage vs untreated, read-out: Solo Oxyfluorfen % activity
Description: (§1) For the post-emergence treatment, the test plants were first grown to 3 to 4 inch (7.6 to 10.2 cm) tall, and only then treated. Here, the herbicidal compositions were suspended or emulsified in water as distribution medium and sprayed using finely distributing nozzles.
(§2) The herbicide compounds applied in the examples were used as commercially available formulations which have been diluted with deionized water to a suitable concentration.
(§3) Oxyfluorfen (commercial product name: Goal 2XL) was used as an emulsifiable concentrate having an active ingredient concentration of 240 g/l. Glufosinate (commercial product name: Liberty) was used as an aqueous soluble liquid of glufosinate ammonium having an active ingredient concentration of 280 g/l. Adjuvants of ammonium sulfate (AMS) and non-ionic surfactant (NIS) were added in all treatments. AMS and NIS were AMS Liquid and Induce at rates of 1680 g/ha and 0.25% (v/v), respectively.
(§4) The test period extended over 28 days after treatment (DAT). During this time, the plants were tended and their response to the individual treatments was evaluated.
(§5) The evaluation for the damage caused by the chemical compositions was carried out using a scale from 0 to 100%, compared to the untreated control plants. Here, 0 means no damage and 100 means complete destruction of the plants.
(§6) The plants used in the greenhouse experiments belonged to the following species:
(§7) E=X+Y−(X·Y/100) • where X=effect in percent using Oxyfluorfen at an application rate a; • Y=effect in percent using glufosinate at application rate b; • E=expected effect (in %) of Oxyfluorfen plus glufosinate at application rates a+b.
(§8) The value E corresponds to the effect (plant damage or injury) which is to be expected if the activity of the individual compounds is just additive. If the observed effect is higher than the value E calculated according to Colby, a synergistic effect is present.

Chenopodium album = test: greenhouse post-emergence herbicidal activity on Chenopodium album; format: in vivo; conditions: for inhibition at 327 g/ha: read-out: Solo Glufosinate % activity; for inhibition at 10.2 g/ha: 10.2 g ai/ha, scale 0-100% damage vs untreated, read-out: Solo Oxyfluorfen % activity
Description: as §1, §2, §3, §4, §5, §6, §7, §8

Structure (SMILES)	inhibition at 327 g/ha (Echinochloa crus-galli; 168 h) [%]	inhibition at 327 g/ha (Echinochloa crus-galli; 336 h) [%]	inhibition at 327 g/ha (Echinochloa crus-galli; 504 h) [%]	inhibition at 327 g/ha (Chenopodium album; 168 h) [%]	inhibition at 327 g/ha (Chenopodium album; 336 h) [%]	inhibition at 327 g/ha (Chenopodium album; 504 h) [%]	inhibition at 10.2 g/ha (Echinochloa crus-galli; 168 h, 7 DAT) [%]	inhibition at 10.2 g/ha (Echinochloa crus-galli; 336 h, 14 DAT) [%]	inhibition at 10.2 g/ha (Echinochloa crus-galli; 504 h, 21 DAT) [%]	inhibition at 10.2 g/ha (Chenopodium album; 168 h, 7 DAT) [%]	inhibition at 10.2 g/ha (Chenopodium album; 336 h, 14 DAT) [%]	inhibition at 10.2 g/ha (Chenopodium album; 504 h, 21 DAT) [%]
CP(=O)(O)CCC(N)C(=O)O (racemic) [Glufosinate, (2RS)-2-amino-4-[hydroxy(methyl)phosphinoyl]butyric acid]	84	25	20	81	75	78						
CCOc1cc(Oc2ccc(C(F)(F)F)cc2Cl)ccc1[N+](=O)[O-] [Oxyfluorfen]							28	15	20	33	25	30
